# Laboratory results published in the supplement of paper PMC10307832.
# What was measured:
# Assay in all cases: relative viability (nuclei count vs DMSO), 5 days (fraction); higher = more cells survive
# [1] = compound: N#CC1(c2ccc(NC(=O)c3cccnc3NCc3ccncc3)cc2)CCCC1 [Apatinib] + N=C(N)NC(=N)NCCc1ccccc1 [Phenformin] (partner 250 µM)
# In short: (§1)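 Cells from lung cancer lines were seeded into 1536-well plates and, one day later, dosed by pin tool. Treatments were either a single drug or a fixed dose of an anchor drug with five library-drug doses (not always all listed) in √10 steps. After 5 days, nuclei were stained in a one-step fixation (final 0.05% Triton X-100, 1% formaldehyde, 1 ug/ml Hoechst) and counted on 4× images, and relative viability is the treated-to-vehicle nuclei ratio, as the median of duplicate plates.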
# [2] = compound: N#CC1(c2ccc(NC(=O)c3cccnc3NCc3ccncc3)cc2)CCCC1 [Apatinib] + Cc1cc(Nc2cc(N3CCN(C)CC3)nc(Sc3ccc(NC(=O)C4CC4)cc3)n2)n[nH]1 [Tozasertib] (partner 0.1 µM)
# In short: as §1
# [3] = compound: CN(C)C(=N)NC(=N)N [Metformin] + CC1(C)CCC(c2ccc(Cl)cc2)=C(CN2CCN(c3ccc(C(=O)NS(=O)(=O)c4ccc(N[C@H](CCN5CCOCC5)CSc5ccccc5)c(S(=O)(=O)C(F)(F)F)c4)cc3)CC2)C1 [Navitoclax] (partner 0.5 µM)
# In short: as §1
# [4] = compound: CN(C)C(=N)NC(=N)N [Metformin] + N=C(N)NC(=N)NCCc1ccccc1 [Phenformin] (partner 250 µM)
# In short: as §1
cell line,measurement,setting,value
NCI-H460,relative viability,[1]; first compound 0.08 µM,0.494
same,relative viability,[1]; first compound 0.253 µM,0.479
same,relative viability,[1]; first compound 0.8 µM,0.489
same,relative viability,[1]; first compound 2.53 µM,0.39
same,relative viability,[1]; first compound 8 µM,0.385
same,relative viability,[2]; first compound 0.08 µM,0.576
same,relative viability,[2]; first compound 0.253 µM,0.51
same,relative viability,[2]; first compound 0.8 µM,0.223
same,relative viability,[2]; first compound 2.53 µM,0.0517
same,relative viability,[2]; first compound 8 µM,0.053
same,relative viability,[3]; first compound 31.62 µM,1.22
same,relative viability,[3]; first compound 100 µM,1.16
same,relative viability,[3]; first compound 316.23 µM,1.02
same,relative viability,[3]; first compound 1000 µM,1.14
same,relative viability,[4]; first compound 10 µM,0.426
same,relative viability,[4]; first compound 31.62 µM,0.541
same,relative viability,[4]; first compound 100 µM,0.516
same,relative viability,[4]; first compound 316.23 µM,0.509
same,relative viability,[4]; first compound 1000 µM,0.523
